Assay results as given in PubChem BioAssay AID1159563 (GlaxoSmithKline (GSK), 2015).
The source made the active and inactive calls. The rule behind the calls is not given here.

Test system: HepG2 cytotoxicity
Assay: HepG2 cell cytotoxicity, cytotoxicity control (AID 1159563)

In the case of `Cc1nccn1C1CCCN(C(=O)c2cc3c(F)cccc3s2)C1` (centres undefined), the IC50 is reported as > 100 µM (inactive).
In the case of `CC(C)c1sc(Cl)nc1C(=O)NCCc1nc(C(=O)Nc2ccc3c(c2)OCO3)cs1`, the IC50 is reported as > 100 µM (inactive).
Work on `Cc1cn[nH]c1C1CCCN(Cc2nc3ccccc3n2C)C1` (centres undefined) yielded an IC50 of 50 µM.
Work on `O=C(Nc1ccccc1)Nc1nc(-c2ccccn2)cs1` yielded an IC50 of 25 µM.
`CS(=O)(=O)N1CCC(Nc2ncc(Br)c(Nc3cccc(F)c3C(N)=O)n2)CC1` was tested, and the IC50 was > 100 µM (inactive).
`COc1ccc2ncc(=O)n(CCN3CCOC(CNCc4ccc(C(F)(F)F)cc4F)C3)c2n1` (centres undefined) was tested, and the IC50 was > 100 µM (inactive).
For `Cc1ccc(C)c(CN2C(=O)NC3(CCc4ccccc43)C2=O)c1` (centres undefined), the IC50 was > 100 µM (inactive).
`CN(Cc1cccnc1)Cc1ccc(N2CCN(C(=O)C3(c4ccc(Cl)cc4)CC3)CC2)nc1` was tested, and the IC50 was > 100 µM (inactive).
`O=C(NC(CO)c1ccc(F)cc1)c1ccc(-c2c[nH]c3ncccc23)s1` (centres undefined) showed an IC50 of 40 µM.
`COc1ccc(C(=O)Nc2ccc(NC(=O)CO)cc2)cc1` was tested, and the IC50 was > 100 µM (inactive).
For `Cc1c(C#N)c([N+](=O)[O-])nn1Cc1cccc(Cl)c1Cl`, the IC50 was 79 µM.
In the case of `CC1CN(S(=O)(=O)c2ccc(NC(=O)c3cc(C4CC4)nc4c3cnn4C(C)C)cc2)CC(C)O1` (centres undefined), the IC50 is reported as > 100 µM (inactive).
With `COc1ccccc1C=CCN1C[C@H]2CCC[C@@H](C1)C2(O)c1cccnc1` (some centres undefined) the IC50 was > 100 µM (inactive).
`O=C(NCC(c1cccs1)N1CCOCC1)c1ccc([N+](=O)[O-])o1` (centres undefined) gave an IC50 of 20 µM.
With `COc1ccc2nccc([C@H](O)CN3CC[C@H](NC(=O)c4ccc(Br)cc4)[C@@H](O)C3)c2n1` the IC50 was > 100 µM (inactive).
For `CNc1nc(C)nc(N2CCc3cc(C(=O)NCc4ccc(-c5ccn[nH]5)cc4Cl)ccc32)n1`, the IC50 was > 100 µM (inactive).
With `COc1cc(-c2noc(CC#N)n2)ccc1OC(F)F` the IC50 was > 100 µM (inactive).
In the case of `COc1ccc2c(Cl)c(C(=O)N3CCC3)sc2c1Cl`, the IC50 is reported as > 100 µM (inactive).
`O=C(c1ccc(Cl)cc1)c1ccc(OC(=O)N2CCOCC2)cc1` was tested, and the IC50 was > 100 µM (inactive).
With `COc1ccc(C(=O)[C@H]2C[C@@H]2CN(Cc2ccccn2)Cc2ccccn2)cc1` the IC50 was > 100 µM (inactive).
In the case of `c1ccc(-c2nc(NC3CCCCC3)cc(C3CC3)n2)nc1`, the IC50 is reported as 40 µM.
For `O=C(c1cccc(Cl)c1Cl)N1CCn2c1nc(-c1ccncc1)cc2=O`, the IC50 was > 100 µM (inactive).
With `Cc1[nH]n2c(=O)c3c(nc2c1-c1ccc(F)cc1)CCCC3` the IC50 was > 100 µM (inactive).
For `CCN(CC)S(=O)(=O)c1ccc(OC)c(NC(=O)c2ccc([N+](=O)[O-])s2)c1`, the IC50 was > 100 µM (inactive).
With `COc1ccc([N+](=O)[O-])cc1NC(=O)c1cc(Cl)ccc1O` the IC50 was 10 µM.
In the case of `Cc1nn(-c2nc3ccccc3s2)c2c1C(c1ccc(OCC(N)=O)cc1)SCC(=O)N2` (centres undefined), the IC50 is reported as > 100 µM (inactive).
In the case of `Cc1nnnn1-c1cccc(C(=O)N2CCC[C@@]3(C)c4ncncc4CCC23)c1` (some centres undefined), the IC50 is reported as > 100 µM (inactive).
In the case of `OCCCNc1nc(Nc2ccncc2)nc2ccccc12`, the IC50 is reported as > 100 µM (inactive).
`NC(=O)c1ccc(-c2cccc(OCCN3CCN(C4CCCCC4)CC3)c2)cc1` was tested, and the IC50 was 50 µM.
With `O=C(NCCc1ccccn1)C(c1cn[nH]c1)N1CCN(c2ccc(Cl)c(Cl)c2)CC1` (centres undefined) the IC50 was > 100 µM (inactive).
Work on `COc1ccc(Cc2nc(-c3ncc4cccnc4c3O)n[nH]2)cc1OC` yielded an IC50 of 50 µM.
`CCC(=O)N1N=C(c2ccc3c(c2)CCCC3)Sc2c1ncn2C(=O)CC` was tested, and the IC50 was > 100 µM (inactive).
`O=C(CCc1ccc(-c2ccccc2)o1)N1CCN(c2ccc(O)cc2)CC1` was tested, and the IC50 was > 100 µM (inactive).
With `O=c1[nH]c(C=Cc2cccc(OCCOc3ccccc3)c2)nc(O)c1[N+](=O)[O-]` the IC50 was > 100 µM (inactive).
`COc1ccc(CNc2cc(C3CC3)nc(-c3nccn3C)n2)cc1` gave an IC50 of 25 µM.
`CCCCN(C(=O)c1ccc(NC(=O)C(C)C)cc1)c1ccccc1` was tested, and the IC50 was > 100 µM (inactive).
`Cc1cc(C)n(-c2nc(NC(C)(C)C)nc(N3CCOCC3)n2)n1` was tested, and the IC50 was 100 µM.
`Cc1c(C(C)NC(=O)Nc2cccc(Cl)c2)sc2ncnn12` (centres undefined) was tested, and the IC50 was > 100 µM (inactive).
In the case of `O=C(c1cccc(Nc2ncc(-c3ccc4c(c3)OCO4)cn2)c1)N1CCOCC1`, the IC50 is reported as > 130 µM (inactive).
